In patent publication US11840528B2 (Hoffmann-La Roche Inc., priority 2018, dated 2023):

Experiments:
h-GABA-A α5β3γ2 [1] = biological target: T1, h-GABA-A α5β3γ2 (Homo sapiens, UniProt P18507+P31644); experiment: [3H]flumazenil competition binding assay, membranes of HEK293 cells expressing GABAA receptors; conditions: displacement of [3H]-Flumazenil 0.5 nM, HEK293 cells expressing human receptors, mean of two determinations; Table 1
Method: The affinity of compounds at GABAA receptor subtypes was measured by competition for [3H]flumazenil (85 Ci/mmol; Roche) binding to HEK293 cells expressing rat (stably transfected) or human (transiently transfected) receptors of composition α1β3γ2, α2β3γ2, α3β3γ2 and α5β3γ2.
Cell pellets were suspended in Krebs-tris buffer (4.8 mM KCl, 1.2 mM CaCl2), 1.2 mM MgCl2, 120 mM NaCl, 15 mM Tris; pH 7.5; binding assay buffer), homogenized by polytron for ca. 20 sec on ice and centrifuged for 60 min at 4° C. (50000 g; Sorvall, rotor: SM24=20000 rpm). The cell pellets were resuspended in Krebs-tris buffer and homogenized by polytron for ca. 15 sec on ice. Protein was measured (Bradford method, Bio-Rad) and aliquots of 1 mL were prepared and stored at −80° C.
Assays were incubated to equilibrium for 1 hour at 4° C. and harvested onto GF/C uni-filters (Packard) by filtration using a Packard harvester and washing with ice-cold wash buffer (50 mM Tris; pH 7.5). After drying, filter-retained radioactivity was detected by liquid scintillation counting. Ki values were calculated using Excel-Fit (Microsoft) and are the means of two determinations.

h-GABA-A α5β3γ2 [2] = biological target: T1, h-GABA-A α5β3γ2; experiment: Two-electrode voltage clamp electrophysiology in Xenopus laevis oocytes expressing GABAA receptors, modulation of GABA EC20 current; assay type: cell-based; set-up: host or cells: Xenopus laevis oocytes micro-injected with RNA transcripts of the subunits; conditions: Table 1; for Efficacy (GABA) %: % modulation of GABA EC20 = 100*(Fold increase-1); for Fold increase h-GABA-A α5β3γ2 oocyte: test compound at approx. 30 fold its Ki, GABA at EC20
Method: Xenopus laevis oocytes at maturation stages V-VI were used for the expression of cloned mRNA encoding GABAA receptor subunits. Oocytes ready for RNA micro-injection were bought from Ecocyte, Castrop-Rauxel, Germany and stored in modified Barth's medium (composition in mM: NaCl 88, KCl 1, NaHCO32.4, HEPES 10, MgSO4 0.82, CaNO3 0.33, CaCl2 0.33, pH=7.5) at 20° C. until the experiment.
Oocytes were plated in 96-well plates to be used in an automated instrument (Robo-ocyte, MultiChannelSystems, Reutlingen, Germany) for microinjection and electrophysiological recordings. Approximately 50 nl of an aqueous solution containing the RNA transcripts for the subunits of the desired GABAA receptor was injected into each oocyte. RNA concentrations ranged between 0.3 and 16 ng/μl/subunit and were adjusted in pilot experiments to obtain GABA responses of a suitable size and a maximal effect of the reference modulator, Beta-CCM (β-CCM), a betacarboline negative allosteric modulator (NAM) at the GABAA receptor benzodiazepine (BZD) binding site or Midazolam, a benzodiazepine positive allosteric modulator (PAM) at the GABAA receptor benzodiazepine (BZD) binding site. The concentration of the γ2 subunit encoding RNA usually was 5- to 10-fold higher than the RNAs encoding the other subunits. Oocytes were kept in modified Barth's medium (composition in mM: NaCl 88, KCl 1, NaHCO3 4, HEPES 10, MgSO4 0.82, CaNO3 0.33, CaCl2) 0.33, pH=7.5) at 20° C. until the experiment.
Electrophysiological experiments were performed on days 3 to 5 after the micro-injection of mRNA. During the experiment the oocytes were constantly superfused by a solution containing (in mM) NaCl 90, KCl 1, HEPES 5, MgCl2 1, CaCl2) 1 (pH 7.4). Oocytes were impaled by two glass microelectrodes (resistance: 0.4 MΩ) which were filled with a solution containing KCl 1M+K-acetate 1.5 M and voltage-clamped to −80 mV. The recordings were performed at room temperature using the Roboocyte two-electrode voltage clamp system (Multichannelsystem). After an initial equilibration period of 1.5 min GABA was added for 1.5 min at a concentration evoking approximately 20% of a maximal current response (EC20). After another rest interval of 2.5 min GABA was again added evoking a response of similar amplitude and shape. 0.5 min after the onset of this second GABA application the test compound, at a concentration corresponding to approximatively 30 fold its Ki, was added while GABA was still present. Current traces were recorded at a digitization rate of 10 Hz during and shortly before and after the GABA application.
Each compound and concentration was tested on at least 3 oocytes. Different oocytes were used for different compound concentrations. β-CCM, a negative allosteric modulator, or Midazolam, a positive allosteric modulators, were tested on a few (3-6) oocytes on each 96-well plate for a positive control at a maximally effective. β-CCM inhibited the GABA-evoked current by approximatively 50% (Fold increase ˜0.5), while Midazolam potentiated the GABA-induced current by approximatively 150% (Fold increase ˜2.5).
For the analysis, the digitized current traces of the first and second GABA response were superimposed and, if necessary, rescaled to equal maximal amplitudes. The ratio between the two responses during the time interval of test compound application was calculated point by point. The extremum of the resulting “ratio trace” was taken as the efficacy (“Fold increase”) of the compound expressed as “% modulation of GABA EC20” (100*(Fold increase-1)).

SMILES | Ki (h-GABA-A α5β3γ2 [1]) [nM] | Efficacy (GABA) % (h-GABA-A α5β3γ2 [2]) [%] | Fold increase h-GABA-A α5β3γ2 oocyte (h-GABA-A α5β3γ2 [2])
CO[C@H]1CN(c2cnn(Cc3c(-c4ccc(Cl)nc4)noc3C)c(=O)c2)[C@H]1C [Example 286, 2-((3-(6-chloropyridin-3-yl)-5-methylisoxazol-4-yl)methyl)-5-((2S,3S)-3-methoxy-2-methylazetidin-1-yl)pyridazin-3(2H)-one] | 3.3 | 112 | 2.12
COc1cc(-c2cnn(Cc3c(-c4ccc(C)nc4)noc3C)c(=O)c2)c(F)cn1 [Example 191, 5-(5-fluoro-2-methoxypyridin-4-yl)-2-((5-methyl-3-(6-methylpyridin-3-yl)isoxazol-4-yl)methyl)pyridazin-3(2H)-one] | 5.9 | 126 | 2.26
Cc1ccc(-c2noc(C)c2Cn2ncc(N3CC4(CNC4)C3)cc2=O)cn1 [Example 77, 5-(2,6-diazaspiro[3.3]heptan-2-yl)-2-[[5-methyl-3-(6-methyl-3-pyridyl)isoxazol-4-yl]methyl]pyridazin-3-one] | 30.4 | 149 | 2.49
CCc1cc(-c2cnn(Cc3c(-c4ccc(C)nc4)noc3C)c(=O)c2)ccn1 [Example 196, 5-(2-ethyl-4-pyridyl)-2-((5-methyl-3-(6-methyl-3-pyridyl)isoxazol-4-yl)methyl)pyridazin-3-one] | 3.7 | 98 | 1.98
CCOC1CN(c2cnn(Cc3c(-c4ccc(Cl)cc4)noc3C)c(=O)c2)C1 [Example 161, 2-[[3-(4-chlorophenyl)-5-methyl-isoxazol-4-yl]methyl]-5-(3-ethoxyazetidin-1-yl)pyridazin-3-one] | 7.8 | 56 | 1.56
CCO[C@H]1CN(c2cnn(Cc3c(-c4ccc(Cl)nc4)noc3C)c(=O)c2)[C@H]1C [Example 291, 2-((3-(6-chloropyridin-3-yl)-5-methylisoxazol-4-yl)methyl)-5-((2S,3S)-3-ethoxy-2-methylazetidin-1-yl)pyridazin-3(2H)-one] | 2.8 | 124 | 2.24
Cc1ccc(-c2noc(C)c2Cn2ncc(N(C)C)cc2=O)cn1 [Example 45, 5-(dimethylamino)-2-((5-methyl-3-(6-methylpyridin-3-yl)isoxazol-4-yl)methyl)pyridazin-3(2H)-one] | 6.6 | 103 | 2.03

More lines, now with the values ahead:

Ki (h-GABA-A α5β3γ2 [1]) [nM] | Efficacy (GABA) % (h-GABA-A α5β3γ2 [2]) [%] | Fold increase h-GABA-A α5β3γ2 oocyte (h-GABA-A α5β3γ2 [2]) | SMILES
4.5 | 198 | 2.98 | Cc1ccc(-c2noc(C)c2Cn2ncc(N3CC(Oc4ccncc4)C3)cc2=O)cn1 [Example 129, 2-[[5-methyl-3-(6-methyl-3-pyridyl)isoxazol-4-yl]methyl]-5-[3-(4-pyridyloxy)azetidin-1-yl]pyridazin-3-one]
10.6 | 110 | 2.1 | Cc1ccc(-c2noc(C)c2Cn2ncc(N3CC[C@@H](O)C3)cc2=O)cn1 [Example 3, 5-[(3R)-3-hydroxypyrrolidin-1-yl]-2-[[5-methyl-3-(6-methyl-3-pyridyl)isoxazol-4-yl]methyl]pyridazin-3-one]
15.8 | 103 | 2.03 | Cc1ccc(-c2noc(C)c2Cn2ncc(N3CC4(CCCCO4)C3)cc2=O)cn1 [Example 216, 2-((5-methyl-3-(6-methylpyridin-3-yl)isoxazol-4-yl)methyl)-5-(5-oxa-2-azaspiro[3.5]nonan-2-yl)pyridazin-3(2H)-one]
4.6 | 89 | 1.89 | Cc1ccc(-c2noc(C)c2Cn2ncc(N3CC4(CCC(F)CO4)C3)cc2=O)cn1 (single isomer, unassigned) [Example 275]
4 | 140 | 2.4 | Cc1ccc(-c2noc(C)c2Cn2ncc(N3CC4(CC(OC(F)F)C4)C3)cc2=O)nn1 [Example 315, 5-[6-(difluoromethoxy)-2-azaspiro[3.3]heptan-2-yl]-2-[[5-methyl-3-(6-methylpyridazin-3-yl)isoxazol-4-yl]methyl]pyridazin-3-one]
15.1 | 160 | 2.6 | Cc1ccc(-c2noc(C)c2Cn2ncc(N3CC4(C[C@H](OC(F)F)CO4)C3)cc2=O)cn1 [Example 204, 5-[(7S)-7-(difluoromethoxy)-5-oxa-2-azaspiro[3.4]octan-2-yl]-2-[[5-methyl-3-(6-methyl-3-pyridyl)isoxazol-4-yl]methyl]pyridazin-3-one]
26.4 | 121 | 2.21 | Cc1onc(-c2ccc(C(F)(F)F)nc2)c1Cn1ncc(N2CCN(C3CC3)CC2)cc1=O [Example 66, 5-(4-cyclopropylpiperazin-1-yl)-2-[[5-methyl-3-[6-(trifluoromethyl)-3-pyridyl]isoxazol-4-yl]methyl]pyridazin-3-one]
7.3 | 132 | 2.32 | Cc1ccc(-c2noc(C)c2Cn2ncc(N3CC(C)(O)C3)cc2=O)cn1 [Example 98, 5-(3-hydroxy-3-methyl-azetidin-1-yl)-2-[[5-methyl-3-(6-methyl-3-pyridyl)isoxazol-4-yl]methyl]pyridazin-3-one]
0.6 | 88 | 1.88 | Cc1cc(-c2noc(C)c2Cn2ncc(N3C[C@@H](C)O[C@@H](C)C3)cc2=O)no1 [Example 62, 5-(cis-2,6-dimethylmorpholin-4-yl)-2-[[5-methyl-3-(5-methylisoxazol-3-yl)isoxazol-4-yl]methyl]pyridazin-3-one]
9.2 | 105 | 2.05 | Cc1ccc(-c2noc(C)c2Cn2ncc(N3CC(Oc4ccc(Cl)nc4)C3)cc2=O)cn1 [Example 138, 5-[3-[(6-chloro-3-pyridyl)oxy]azetidin-1-yl]-2-[[5-methyl-3-(6-methyl-3-pyridyl)isoxazol-4-yl]methyl]pyridazin-3-one]
1 | 67 | 1.67 | Cc1ccc(-c2noc(C)c2Cn2ncc(N3CC(OC4CC4)C3)cc2=O)nn1 [Example 239, 5-[3-(cyclopropoxy)azetidin-1-yl]-2-[[5-methyl-3-(6-methylpyridazin-3-yl)isoxazol-4-yl]methyl]pyridazin-3-one]
